Test results: patent publication US6737383B1, “Herbicidal oxadiazolidines” (priority 1999, dated 2004)

Columns and labels:
wheat = assay: Test B pre/postemergence wheat; format: in vivo, Triticum aestivum
Method in brief: (§1)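 Test chemicals in a non-phytotoxic solvent mixture with surfactant were sprayed preemergence onto planted seeds and postemergence onto plants 2 to 18 cm tall (1- to 4-leaf stage). After twelve to sixteen days in a greenhouse, injury was visually rated against untreated controls from 0 (no effect) to 10 (complete control).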

cocklebur = assay: Test B pre/postemergence cocklebur; format: in vivo, Xanthium strumarium
Method in brief: as §1

bamyardgrass = assay: Test B flood test barnyardgrass; format: in vivo, Echinochloa crus-galli
Method in brief: (§2)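 Flood test on plants grown to the 2-leaf stage; treated plants kept in greenhouse twelve to sixteen days, then visually rated against controls on a 0 (no effect) to 10 (complete control) scale.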

wild oat = assay: Test B pre/postemergence wild oat; format: in vivo, Avena fatua
Method in brief: as §1

crabgrass = assay: Test B pre/postemergence crabgrass; format: in vivo, Digitaria sanguinalis
Method in brief: as §1

rape = assay: Test B pre/postemergence rape; format: in vivo, Brassica napus
Method in brief: as §1

soybean = assay: Test B pre/postemergence soybean; format: in vivo, Glycine max
Method in brief: as §1

duck salad = assay: Test B flood test duck salad; format: in vivo, Heteranthera limosa
Method in brief: as §2

bedstraw = assay: Test B pre/postemergence bedstraw; format: in vivo, Galium aparine; conditions: Preemergence
Method in brief: as §1

pigweed = assay: Test B pre/postemergence pigweed; format: in vivo, Amaranthus retroflexus
Method in brief: as §1

blackgrass = assay: Test B pre/postemergence blackgrass; format: in vivo, Alopecurus myosuroides
Method in brief: as §1

velvetleaf = assay: Test B pre/postemergence velvetleaf; format: in vivo, Abutilon theophrasti
Method in brief: as §1

morningglory = assay: Test B pre/postemergence morningglory; format: in vivo, Ipomoea hederacea
Method in brief: as §1

corn = assay: Test B pre/postemergence corn; format: in vivo, Zea mays
Method in brief: as §1

rice = assay: Test B flood test rice; format: in vivo, Oryza sativa
Method in brief: as §2

purple nutsedge = assay: Test B pre/postemergence purple nutsedge; format: in vivo, Cyperus rotundus
Method in brief: as §1

surinam grass = assay: Test B pre/postemergence surinam grass; format: in vivo, Brachiaria decumbens
Method in brief: as §1

giant foxtail = assay: Test B pre/postemergence giant foxtail; format: in vivo, Setaria faberii
Method in brief: as §1

smallflower flatsedge = assay: Test B flood test smallflower flatsedge; format: in vivo, Cyperus difformis
Method in brief: as §2

sugar beet = assay: Test B pre/postemergence sugar beet; format: in vivo, Beta vulgaris
Method in brief: as §1

[1] = Postemergence, Rate 62 g/ha, scale 0 to 10, 0 is no effect, 10 is complete control
[2] = Postemergence, Rate 500 g/ha, scale 0 (no effect) to 10 (complete control)
[3] = Rate 62 g/ha, Preemergence, scale 0 to 10
[4] = Rate 250 g/ha, Postemergence, scale 0 to 10, 0 is no effect, 10 is complete control
[5] = Rate 500 g/ha, Preemergence, scale 0 to 10 (0 no effect, 10 complete control)
[6] = Postemergence, Rate 125 g/ha, scale of 0 to 10 where 0 is no effect and 10 is complete control
[7] = Preemergence, Rate 250 g/ha, scale 0 (no effect) to 10 (complete control)
[8] = Rate 125 g/ha, Preemergence, scale 0 to 10 (0 no effect, 10 complete control)
[9] = Pre-emergence, Rate 62 g/ha, scale 0 to 10, 0 is no effect, 10 is complete control
[10] = Rate 125 g/ha, Pre-emergence section (flood test species), scale 0 to 10, 0 no effect, 10 complete control
[11] = Rate 250 g/ha, Pre-emergence (flood test species), scale 0 to 10, 0 is no effect, 10 is complete control
[12] = Rate 500 g/ha, Pre-emergence section of Table B, 0 to 10 scale (0 no effect, 10 complete control)

CC(C)N(C(=O)n1oc(=O)n(CC2=NOCCO2)c1=O)c1ccc(F)cc1 [Compound 765]
Plant response rating, Wheat (wheat; [1]): 0
Wheat plant response rating (wheat; [2]): 5
Wheat plant response rating (wheat; [3]): 3
Wheat plant response rating (wheat; [4]): 3
Wheat plant response rating (wheat; [5]): 8
Plant response rating, Cocklebur (cocklebur; [1]): 0
Cocklebur plant response rating (cocklebur; [6]): 0
Cocklebur plant response rating (cocklebur; [2]): 3
Cocklebur plant response rating (cocklebur; [7]): 0
Cocklebur plant response rating (cocklebur; [3]): 0
Cocklebur plant response rating (cocklebur; [8]): 0
Cocklebur plant response rating (cocklebur; [4]): 0
Cocklebur plant response rating (cocklebur; [5]): 0
Barnyardgrass plant response rating (bamyardgrass; [9]): 0
Barnyardgrass plant response rating (bamyardgrass; [10]): 0
Barnyardgrass plant response rating (bamyardgrass; [11]): 0
Barnyardgrass plant response rating (bamyardgrass; [12]): 0
Plant response rating, Wild oats (wild oat; [1]): 0
Wild oats plant response rating (wild oat; [2]): 2
Wild oats plant response rating (wild oat; [3]): 4
Wild oats plant response rating (wild oat; [4]): 0
Wild oats plant response rating (wild oat; [5]): 9
Plant response rating, Crabgrass (crabgrass; [1]): 3
Crabgrass plant response rating (crabgrass; [6]): 5
Crabgrass plant response rating (crabgrass; [2]): 9
Crabgrass plant response rating (crabgrass; [7]): 10
Crabgrass plant response rating (crabgrass; [3]): 9
Crabgrass plant response rating (crabgrass; [8]): 10
Crabgrass plant response rating (crabgrass; [4]): 7
Crabgrass plant response rating (crabgrass; [5]): 10
Plant response rating, Rape (rape; [1]): 0
Rape plant response rating (rape; [6]): 0
Rape plant response rating (rape; [2]): 1
Rape plant response rating (rape; [3]): 2
Rape plant response rating (rape; [4]): 0
Rape plant response rating (rape; [5]): 8
Plant response rating, Soybean (soybean; [1]): 2
Soybean plant response rating (soybean; [2]): 5
Soybean plant response rating (soybean; [3]): 0
Soybean plant response rating (soybean; [8]): 0
Soybean plant response rating (soybean; [4]): 5
Soybean plant response rating (soybean; [5]): 0
Ducksalad plant response rating (duck salad; [9]): 0
Ducksalad plant response rating (duck salad; [10]): 0
Ducksalad plant response rating (duck salad; [11]): 0
Ducksalad plant response rating (duck salad; [12]): 0
Bedstraw plant response rating (bedstraw; Rate 250 g/ha, scale 0 (no effect) to 10 (complete control)): 2
Bedstraw plant response rating (bedstraw; Rate 62 g/ha, scale 0 to 10): 0
Bedstraw plant response rating (bedstraw; Rate 500 g/ha, scale 0 to 10 (0 no effect, 10 complete control)): 8
Plant response rating, Redroot pigweed (pigweed; [1]): 6
Redroot pigweed plant response rating (pigweed; [6]): 7
Redroot pigweed plant response rating (pigweed; [2]): 8
Redroot pigweed plant response rating (pigweed; [3]): 8
Redroot pigweed plant response rating (pigweed; [5]): 10
Plant response rating, Blackgrass (blackgrass; [1]): 3
Blackgrass plant response rating (blackgrass; [6]): 5
Blackgrass plant response rating (blackgrass; [2]): 7
Blackgrass plant response rating (blackgrass; [7]): 8
Blackgrass plant response rating (blackgrass; [3]): 7
Blackgrass plant response rating (blackgrass; [4]): 7
Blackgrass plant response rating (blackgrass; [5]): 9
Plant response rating, Velvetleaf (velvetleaf; [1]): 6
Velvetleaf plant response rating (velvetleaf; [2]): 7
Velvetleaf plant response rating (velvetleaf; [3]): 0
Velvetleaf plant response rating (velvetleaf; [8]): 4
Velvetleaf plant response rating (velvetleaf; [4]): 7
Velvetleaf plant response rating (velvetleaf; [5]): 7
Plant response rating, Morningglory (morningglory; [1]): 5
Morningglory plant response rating (morningglory; [6]): 6
Morningglory plant response rating (morningglory; [2]): 8
Morningglory plant response rating (morningglory; [3]): 0
Morningglory plant response rating (morningglory; [8]): 0
Morningglory plant response rating (morningglory; [4]): 6
Morningglory plant response rating (morningglory; [5]): 0
Plant response rating, Corn (corn; [1]): 0
Corn plant response rating (corn; [6]): 0
Corn plant response rating (corn; [2]): 3
Corn plant response rating (corn; [7]): 0
Corn plant response rating (corn; [3]): 0
Corn plant response rating (corn; [8]): 0
Corn plant response rating (corn; [4]): 0
Corn plant response rating (corn; [5]): 2
Rice plant response rating (rice; [9]): 0
Rice plant response rating (rice; [10]): 0
Rice plant response rating (rice; [11]): 0
Rice plant response rating (rice; [12]): 0
Plant response rating, Nutsedge (purple nutsedge; [1]): 0
Nutsedge plant response rating (purple nutsedge; [6]): 0
Nutsedge plant response rating (purple nutsedge; [2]): 3
Nutsedge plant response rating (purple nutsedge; [3]): 0
Nutsedge plant response rating (purple nutsedge; [4]): 0
Nutsedge plant response rating (purple nutsedge; [5]): 0
Plant response rating, B. signalgrass (surinam grass; [1]): 3
B. signalgrass plant response rating (surinam grass; [6]): 7
B. signalgrass plant response rating (surinam grass; Preemergence, Rate 62 g/ha, scale of 0 to 10 where 0 is no effect and 10 is complete control): 5
B. signalgrass plant response rating (surinam grass; [7]): 7
B. signalgrass plant response rating (surinam grass; [4]): 7
B. signalgrass plant response rating (surinam grass; Rate 500 g/ha, Postemergence, scale 0 to 10, 0 is no effect, 10 is complete control): 8
B. signalgrass plant response rating (surinam grass; [5]): 7
Plant response rating, Giant foxtail (giant foxtail; [1]): 5
Giant foxtail plant response rating (giant foxtail; [6]): 8
Giant foxtail plant response rating (giant foxtail; [2]): 9
Giant foxtail plant response rating (giant foxtail; [7]): 10
Giant foxtail plant response rating (giant foxtail; [3]): 9
Giant foxtail plant response rating (giant foxtail; [8]): 10
Giant foxtail plant response rating (giant foxtail; [4]): 9
Giant foxtail plant response rating (giant foxtail; [5]): 10
S. Flatsedge plant response rating (smallflower flatsedge; [9]): 0
S. Flatsedge plant response rating (smallflower flatsedge; [10]): 0
S. Flatsedge plant response rating (smallflower flatsedge; [11]): 0
S. Flatsedge plant response rating (smallflower flatsedge; [12]): 0
Plant response rating, Sugarbeets (sugar beet; [1]): 0
Sugarbeets plant response rating (sugar beet; [2]): 4
Sugarbeets plant response rating (sugar beet; [3]): 6
Sugarbeets plant response rating (sugar beet; [4]): 0
Sugarbeets plant response rating (sugar beet; [5]): 9
